Experimental data published in paper PMC3271735 (Journal of the American Chemical Society, 2012).

Key:
Format in all cases: biochemical
Conditions in all cases: 100 μM inhibitor
Sirt1 = molecular target: T1, Sirt1 (Homo sapiens, UniProt Q96EB6); experiment: Sirt1 inhibition assay
T1 sequence (Q96EB6 1-747): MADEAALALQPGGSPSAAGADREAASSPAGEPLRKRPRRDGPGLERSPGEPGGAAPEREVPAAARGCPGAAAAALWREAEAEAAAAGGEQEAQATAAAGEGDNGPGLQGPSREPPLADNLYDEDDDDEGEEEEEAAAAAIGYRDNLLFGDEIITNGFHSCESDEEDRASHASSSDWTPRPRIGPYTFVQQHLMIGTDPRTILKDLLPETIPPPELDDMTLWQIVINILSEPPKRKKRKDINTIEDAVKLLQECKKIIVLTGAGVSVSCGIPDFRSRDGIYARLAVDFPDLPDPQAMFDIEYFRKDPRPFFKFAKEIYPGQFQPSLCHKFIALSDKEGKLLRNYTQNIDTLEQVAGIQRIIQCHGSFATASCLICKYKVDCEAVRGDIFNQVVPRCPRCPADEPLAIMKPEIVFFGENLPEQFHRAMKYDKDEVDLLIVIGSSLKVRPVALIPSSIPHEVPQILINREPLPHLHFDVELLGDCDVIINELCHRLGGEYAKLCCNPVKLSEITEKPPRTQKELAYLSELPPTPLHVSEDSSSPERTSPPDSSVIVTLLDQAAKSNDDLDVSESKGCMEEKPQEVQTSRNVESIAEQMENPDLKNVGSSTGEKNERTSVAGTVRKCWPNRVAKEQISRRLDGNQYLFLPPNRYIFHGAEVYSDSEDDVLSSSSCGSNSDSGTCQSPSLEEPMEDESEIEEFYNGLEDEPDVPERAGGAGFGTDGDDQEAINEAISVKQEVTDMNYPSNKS

Sirt2 = molecular target: T2, Sirt2 (Homo sapiens, UniProt Q8IXJ6); experiment: Sirt2 inhibition assay
T2 sequence (Q8IXJ6 1-389): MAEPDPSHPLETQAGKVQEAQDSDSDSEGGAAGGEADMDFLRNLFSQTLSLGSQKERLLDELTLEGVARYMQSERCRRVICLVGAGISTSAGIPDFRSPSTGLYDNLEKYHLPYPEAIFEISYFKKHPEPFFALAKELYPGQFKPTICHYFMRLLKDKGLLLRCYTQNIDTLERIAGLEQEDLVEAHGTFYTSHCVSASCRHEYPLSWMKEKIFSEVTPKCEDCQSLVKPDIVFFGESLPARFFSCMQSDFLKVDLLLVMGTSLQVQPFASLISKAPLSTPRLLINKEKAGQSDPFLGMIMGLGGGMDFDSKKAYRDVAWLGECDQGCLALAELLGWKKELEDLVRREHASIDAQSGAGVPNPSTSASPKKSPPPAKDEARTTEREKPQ

Sirt3 = molecular target: T3, Sirt3 (Homo sapiens, UniProt Q9NTG7); experiment: Sirt3 inhibition assay
T3 sequence (Q9NTG7 1-399): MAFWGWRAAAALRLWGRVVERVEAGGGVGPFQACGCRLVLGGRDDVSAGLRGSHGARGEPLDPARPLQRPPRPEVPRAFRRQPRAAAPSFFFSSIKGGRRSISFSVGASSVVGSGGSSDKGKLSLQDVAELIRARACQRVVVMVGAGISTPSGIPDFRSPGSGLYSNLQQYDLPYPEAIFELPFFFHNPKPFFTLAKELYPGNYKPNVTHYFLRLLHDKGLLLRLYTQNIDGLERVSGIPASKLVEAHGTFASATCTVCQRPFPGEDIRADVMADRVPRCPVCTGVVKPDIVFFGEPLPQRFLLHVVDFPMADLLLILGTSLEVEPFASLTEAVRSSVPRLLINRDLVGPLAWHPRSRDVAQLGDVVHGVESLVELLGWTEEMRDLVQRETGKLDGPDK

inhibition of Sirt1 at 100 μM (Sirt1): does not inhibit
inhibition of Sirt2 at 100 μM (Sirt2): does not inhibit
inhibition of Sirt3 at 100 μM (Sirt3): does not inhibit
SMILES: C[C@H](NC(=O)[C@H](CCCCN)NC(=O)CNC(=O)CNC(=O)[C@@H](NC(=O)[C@H](CO)NC(=O)[C@H](CCCCNC(=S)CCC(=O)O)NC(=O)[C@H](CCCNC(=N)N)NC(=O)[C@H](C)NC(=O)[C@@H](NC(=O)[C@H](CCC(N)=O)NC(=O)[C@@H](N)CCCCN)[C@@H](C)O)[C@@H](C)O)C(=O)O [H3K9TSu, KQTAR(TSuK)STGGKA]
